≈ marks a conversion by molar mass, not a printed value. Read-outs that look alike come from different tables or passages of the source.
Legend:
[1] = solubility of P18 in water and in Soluplus®/Labrasol® micelle formulation; type: physicochemical
Text: In contrast, the solubility of the prodrugs, e.g., P18 in the micelle formulation were improved as presented below.

[2] = in vitro stability in CES1−/− mouse liver homogenates; type: in vitro ADME; conditions: CES1−/− mouse liver homogenate, 10 μM, 37° C.
Procedure: (§1) All synthesized prodrugs were next screened for in vitro stability in carboxylesterase 1 knockout (CES1^−/−) mouse plasma, as well as CES1^−/− mouse brain and liver homogenates (Table 2-1). We have previously reported that CES1^−/− mouse model recapitulates human prodrug metabolism.
For the tissue homogenates, washed tissues were diluted 10-fold in 0.1 M potassium phosphate buffer and homogenized using a probe sonicator. To evaluate the stability of the intact prodrug over time, each of the crude homogenates and plasma were aliquoted to 1 mL and then spiked with a final assay concentration of 10 μM of each prodrug followed by incubation in an orbital shaker at 37° C. for 1 h (in triplicate). Sample from each incubation at predetermined time points (0 min, and 1 h) was quenched with three volumes of acetonitrile containing the internal standard (IS; losartan: 0.5 μm). Samples were vortex-mixed for 30 secs and centrifuged at 10,000×g for 10 min at 4° C. Disappearance of intact prodrugs from these samples were performed on a Dionex ultra-high-performance LC system coupled with Q Exactive Focus orbitrap mass spectrometer (Thermo Fisher Scientific Inc., Waltham MA). […] The mobile phase consisted of 0.1% formic acid in water and 0.1% formic acid in acetonitrile. Pumps were operated at a flow rate of 0.4 mL/min for 9 min using gradient elution. The mass spectrometer controlled by Xcalibur software 4.0.27.13 (Thermo Scientific) was operated with a heated electrospray ionization (HESI) ion source in positive ionization mode. Quantification of the prodrugs were performed in the full-scan mode (from m/z 50 to 1600) by comparing t=0 samples with t=60 min samples.

[3] = in vitro stability in CES1−/− mouse plasma; type: in vitro ADME; conditions: CES1−/− mouse plasma, 10 μM, 37° C.
Procedure: as §1, with “metabolism. Tenora et al., 2019.” for “metabolism.”
Zimmermann et al., 2018. For the tissue homogenates, washed tissues were diluted 10-fold in 0.1 M potassium phosphate buffer and homogenized using a probe sonicator. To evaluate the stability of the intact prodrug over time, each of the crude homogenates and plasma were aliquoted to 1 mL and then spiked with a final assay concentration of 10 μM of each prodrug followed by incubation in an orbital shaker at 37° C. for 1 h (in triplicate). Sample from each incubation at predetermined time points (0 min, and 1 h) was quenched with three volumes of acetonitrile containing the internal standard (IS; losartan: 0.5 μm). Samples were vortex-mixed for 30 secs and centrifuged at 10,000×g for 10 min at 4° C. Disappearance of intact prodrugs from these samples were performed on a Dionex ultra-high-performance LC system coupled with Q Exactive Focus orbitrap mass spectrometer (Thermo Fisher Scientific Inc., Waltham MA). The separation of analytes was achieved using the Agilent Eclipse Plus column (100×2.1 mm i.d.; maintained at 35° C.) packed with a 1.8 μm C18 stationary phase. The mobile phase consisted of 0.1% formic acid in water and 0.1% formic acid in acetonitrile. Pumps were operated at a flow rate of 0.4 mL/min for 9 min using gradient elution. The mass spectrometer controlled by Xcalibur software 4.0.27.13 (Thermo Scientific) was operated with a heated electrospray ionization (HESI) ion source in positive ionization mode. Quantification of the prodrugs were performed in the full-scan mode (from m/z 50 to 1600) by comparing t=0 samples with t=60 min samples.

[4] = single time-point (2 h) oral pharmacokinetic screening in mice; type: in vivo, mouse; conditions: single time point PK, oral 10 mg/kg DPTIP equivalent
Procedure: All PK studies in mice were conducted according to protocols approved by the Animal Care and Use Committee at Johns Hopkins University. Male CD-1 mice between 25 and 30 g were obtained from Harlan and maintained on a 12 h light-dark cycle with ad libitum access to food and water. […] All of the formulations were freshly prepared prior to the dosing. The mice were sacrificed at specified time points (either 2 h or 0.25, 0.5, 1, 2, 4, 6, and 8 h) post drug administration. For the collection of plasma and brain tissue, animals were euthanized with CO2, and blood samples were collected in heparinized microtubes by cardiac puncture. Brains were dissected and immediately flash frozen (−80° C.) Blood samples were spun at 2000 g for 15 min, and plasma was removed and stored at −80° C. until LC-MS/MS analysis. Prior to extraction, frozen samples were thawed on ice.
Brain tissues were diluted 1:5 w/v with acetonitrile containing losartan (0.5 μm) and homogenized, followed by vortex-mixing and centrifugation at 10,000 g for 10 min at 4° C. […] Plasma concentrations (nmol/ml) as well as brain tissue concentrations (nmol/g) were determined and plots of mean plasma concentration versus time were constructed. Non-compartmental analysis modules in Phoenix WinNonlin version 7.0 (Certara USA, Inc., Princeton, NJ) were used to quantify exposures (AUC0-t).

SMILES: CCC1CC(N2CCCCC2)CC(CC)N1C(=O)Oc1c(OC)cc(-c2nc(-c3ccccc3)c(-c3cccs3)[nH]2)cc1OC (stereo not drawn) [Compound P18, 2,6-Dimethoxy-4-(5-phenyl-4-(thiophen-2-yl)-1H-imidazol-2-yl)phenyl 2′,6′-diethyl-[1,4′-bipiperidine]-1′-carboxylate]
- solubility ([1]; Labrasol micelles in water, aqueous with cosolvent or surfactant or cyclodextrin, solid dispersion in Labrasol®, hydrated with water, read-out: solubility in micelle formulation): 1.7 mg/mL (≈ 2700 µM)
- solubility ([1]; Soluplus micelles in water, aqueous with cosolvent or surfactant or cyclodextrin, solid dispersion in Soluplus®, hydrated with water, read-out: solubility in micelle formulation): 1.7 mg/mL (≈ 2700 µM)
- solubility ([1]; water, read-out: solubility in water): < 0.5 mg/mL
- Stability in mouse (% remaining at 1h) Mean + Std Error, Liver [2]: 100 ± 3%
- Stability in mouse (% remaining at 1h) Mean + Std Error, Plasma [3]: 92 ± 7%
- improvement of brain and plasma levels of DPTIP and/or its brain penetration index compared with DPTIP [4]: highest improvement
